These are literature values, as cited in patent publication EP4659594A1, “ORAL PRODUCTS CONTAINING MODIFIED NICOTINE-POLYMER COMPLEX” (Nicoventures Trading Limited, priority 2024, dated 2025).

For this data set the following is noted: octanol/water; source of the values not stated.
Take `CCCCCCCS(=O)(=O)O` [1-heptanesulfonic acid]: the logP is 2.0.
For the compound `CCCCCCCCCCCC(=O)O` [dodecanoic acid], the logP is recorded as 4.6.
Consider `CC(C)[C@@H]1CC[C@@H](C)C[C@H]1OC(=O)CCC(=O)O` [monomenthyl succinate], for which the logP is reported as 3.
Consider ethyl benzoic acid, for which the logP is reported as 2.9.
Turning to isopropyl benzoic acid, the logP is on record as 3.5.

For orientation: logP means a log measure of how a compound divides between an organic and an aqueous phase.
